pIC50, pKd: −log10 of the molar value.
Legend:
CaBdf1 BD2 [1] = biological target: T1, CaBdf1 BD2 (Candida albicans, UniProt Q5A4W8); test: HTRF inhibition assay of BD binding to H4ac4 peptide; conditions: for inhibition of CaBdf1 BD2: HTRF
T1 sequence (Q5A4W8 383-492 limits assumed): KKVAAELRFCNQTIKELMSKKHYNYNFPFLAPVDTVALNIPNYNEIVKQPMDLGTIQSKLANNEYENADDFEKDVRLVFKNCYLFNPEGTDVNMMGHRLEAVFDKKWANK
Source text: (§1) FIG. 7. Homogeneous time-resolved fluorescence (HTRF) assay. a. Assay configuration. A biotinylated tetra-acetylated histone peptide is bound to streptavidin beads which are coupled to a terbium-based donor fluorophore, lumi-Tb cryptate. GST-tagged bromodomain is bound by an anti-GST antibody coupled to the acceptor fluorophore, an organic molecule termed D2. Peptide binding by the bromodomain brings the donor and acceptor within FRET distance. In this situation, excitation of the donor at 337 nm causes energy transfer to the […], whose emitted fluorescence is monitored at 665 nm in a time-resolved manner so as to eliminate transient background fluorescence. b-d. Binding of biotinylated tetra-acetylated H4 (H4ac4) peptide by the BD1 bromodomains from human Brd4 (b), S. cerevisiae Bdf1 (c) and C. albicans Bdf1 (d) as measured by an increase in HTRF signal with increasing peptide concentration.
(§2) A key consideration in establishing fungal BET BD inhibition as a feasible chemotherapeutic strategy is whether these domains can be targeted by small-molecule inhibitors without antagonizing human BET function. To probe the similarity between the ligand binding pockets of C. albicans and human BET BDs, we asked whether human BET inhibitors could inhibit CaBdf1 BDs.

C. albicans = test: Growth of C. albicans in vitro (liquid culture growth assay); format: cell-based
Source text: FIG. 8. CaBdf1 BDs are insensitive to human BET inhibitors. (a) HTRF inhibition assays performed on BD1 and BD2 from CaBdf1 and human Brd4 to evaluate the effects of four human BET inhibitors. Inhibition curves are shown as closed (BD1) and open (BD2) circles in green (Brd4) and magenta (Bdf1). IC50 values are summarized below each graph. (b) Thermal stability of the indicated BET BDs in the presence and absence of BET inhibitors determined by differential scanning fluorimetry. The thermal shift (ΔTm) for each inhibitor is indicated. Curves obtained in the presence (thick lines) or absence (thin lines) are plotted for CaBDF1 BD1 (solid magenta), CaBDF1 BD2 (dashed magenta) and human Brd4 (green). […] Experiments have been performed in the presence of doxycycline, which represses the pTetO-BDF1 allele.
FIG. 13. Identification of a CaBdf1-BD1 inhibitor that phenocopies BD1 inactivation. (a) Chemical structure of dibenzothiazepinone compound MS5. (b) HTRF assay showing that MS5 inhibits CaBdf1-BD1 preferentially over CaBdf1-BD2 and with weak selectivity compared to hBrd4-BD1. (c) ITC experiment showing binding of MS5 towards the indicated BD. (d) Effect of MS5 on the growth of C. albicans. The first allele is indicated below the graph, the second is pMET-BDF1 (top) orpTetO-BDF1 (bottom). Strains were grown in the presence of doxycycline or methionine/cysteine, respectively, to repress expression from the second allele. MS5 compromises growth when CaBdf1-BD2 is inactivated by deletion or point-mutation. Statistical test is a two-sided paired t-test performed on ≥5 biological replicates (*p=0.01 to 0.05; **p=0.001 to 0.01; ***p<0.001). (e) Dose-response experiment showing the effect of MS5 on Bdf1 mutant strains.
We next tested the effect of the identified hit compounds on the growth of C. albicans in vitro. […] We therefore tested compounds that inhibited CaBdf1-BD1 with micromolar IC50 values but which were unselective or only weakly selective for the fungal BD.

Brd4 BD1 = Brd4 BD1 (Homo sapiens, UniProt O60885); test: Isothermal titration calorimetry (ITC); format: binding
CaBdf1 BD2 [2] = biological target: T1, CaBdf1 BD2; test: Isothermal titration calorimetry (ITC); format: binding, C. albicans
CaBdf1 BD1 [3] = biological target: T2, CaBdf1 BD1 (Candida albicans, UniProt Q5A4W8); test: HTRF inhibition assay of BD binding to H4ac4 peptide
T2 sequence (Q5A4W8 206-315 limits assumed): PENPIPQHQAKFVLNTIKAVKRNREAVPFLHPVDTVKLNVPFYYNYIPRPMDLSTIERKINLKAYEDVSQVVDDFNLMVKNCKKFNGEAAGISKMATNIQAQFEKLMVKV
Source text: as §1, with “b-d.” for “b-d. Binding of biotinylated tetra-acetylated H4 (H4ac4) peptide by the BD1 bromodomains from human Brd4 (b), S. cerevisiae Bdf1 (c) and C. albicans Bdf1 (d) as measured by an increase in HTRF signal with increasing peptide concentration.”
as §2

CaBdf1 BD1 [4] = biological target: T2, CaBdf1 BD1; test: Isothermal titration calorimetry (ITC); format: binding, C. albicans

O=C1c2ccccc2Sc2cc(-c3noc(-c4cnccn4)n3)ccc2N1C1CC1 [MS4]
inhibition of CaBdf1 BD2 (CaBdf1 BD2 [1]): only modest inhibition | effect on the growth of C. albicans in vitro (C. albicans): little effect | binding (ITC) (Brd4 BD1): no significant binding was detected

Cc1ccc(Nc2c(-c3ccc(O)cc3)nc3c(C)cccn23)cc1 [MS51, 4-(8-Methyl-3-(p-tolylamino)imidazo[1,2-a]pyridin-2-yl)phenol]
pKd (CaBdf1 BD2 [2]; HTRF and ITC assays, read-out: affinity): 5.70 to 6.00 | selectivity relative to BD1 of either CaBdf1 or human Brd4 (CaBdf1 BD2 [1]): high selectivity

CCOC(=O)Nc1cc(-c2ccc(C)c(NS(C)(=O)=O)c2)nn2c(C)nnc12 [bromosporine, reference compound]
pIC50 (CaBdf1 BD2 [1]): ~6.52

COc1cc2c(cc1-c1c(C)noc1C)ncc1[nH]c(=O)n([C@H](C)c3ccccn3)c12 [IBET-151, reference compound]
effect on C. albicans growth (C. albicans; even when Bdf1 bromodomains are deleted, in the presence of doxycycline (represses pTetO-BDF1 allele)): do not affect | effect on the growth of C. albicans in vitro (C. albicans): none of the BET inhibitors had any significant effect | reduction in sensitivity relative to Brd4 (CaBdf1 BD1 [3]; CaBdf1 BD1 vs corresponding Brd4 BD): 60 fold | pIC50 (CaBdf1 BD1 [3]; HTRF, strongest inhibition): ~6.52

Cc1sc2c(c1C)C(c1ccc(Cl)cc1)=N[C@@H](CC(=O)OC(C)(C)C)c1nnc(C)n1-2 [JQ1, reference compound]
binding (ITC) (CaBdf1 BD2 [2]; ITC): no binding was detected | binding (ITC) (CaBdf1 BD1 [4]; ITC): no binding was detected

CN1C(=O)c2ccccc2Sc2cc(NC(=O)C3CCCO3)ccc21 (centres unmarked) [MS5, N-(10-methyl-11-oxo-10,11-dihydrodibenzo[b,f][1,4]thiazepin-7-yl)tetrahydrofuran-2-carboxamide]
Kd / affinity (CaBdf1 BD1 [4]; ITC (MS5: HTRF and ITC assays)): low micromolar | inhibition of CaBdf1 BD2 (CaBdf1 BD2 [1]): only a weak inhibitory effect | pIC50 (C. albicans; Candida albicans, read-out: IC50 (growth dose-response curve)): 4.40 | effect on growth compared to vehicle (DMSO) (C. albicans; liquid culture, strains expressing WT Bdf1 or mutant Bdf1 inactivated in the first BD): little effect | effect on growth (C. albicans; strains inactivated in BD2): significantly compromised
